Reference: patent publication US9156811B2 (priority 2008, dated 2015)
Where two headings read alike, the source gives them in different places.

Tests used:
[1] = target: T. brucei N-myristoyl transferase (Trypanosoma brucei brucei (strain 927/4 GUTat10.1), UniProt Q388H8); assay: biochemical; format: biochemical
[2] = tested on: Trypanosome (T. brucei brucei); assay: In-vitro antitrypanosomal efficacy assay (cell growth, resazurin); format: cell-based
[3] = value printed without enzyme tag in the NMT Enzyme column (taken as T. brucei NMT), read-out: IC50 (μM) NMT Enzyme
[4] = value with no enzyme tag in the cell, taken as T. brucei NMT, read-out: IC50 (μM) NMT Enzyme
[5] = T. brucei NMT, value without parentheses, read-out: IC50 (μM) NMT Enzyme (T. brucei NMT)
[6] = T. brucei brucei, blood stream form, variant 221

T. brucei N-myristoyl transferase, sequence (Q388H8 1-446): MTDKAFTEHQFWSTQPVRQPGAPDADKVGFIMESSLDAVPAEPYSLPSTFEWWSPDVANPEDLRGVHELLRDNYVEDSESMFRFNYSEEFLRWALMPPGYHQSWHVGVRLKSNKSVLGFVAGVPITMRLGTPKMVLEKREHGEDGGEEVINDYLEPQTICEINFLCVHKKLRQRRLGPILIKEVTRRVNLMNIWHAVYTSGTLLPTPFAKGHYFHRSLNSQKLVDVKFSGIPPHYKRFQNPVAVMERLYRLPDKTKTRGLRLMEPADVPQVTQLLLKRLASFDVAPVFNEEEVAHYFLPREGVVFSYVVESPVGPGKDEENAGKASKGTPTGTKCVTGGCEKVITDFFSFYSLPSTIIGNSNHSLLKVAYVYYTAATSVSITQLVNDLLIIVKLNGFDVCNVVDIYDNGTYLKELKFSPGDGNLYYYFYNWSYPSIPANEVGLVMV

SMILES	IC50 [1, 3] [µM]	IC50 [1, 4] [µM]	IC50 [1, 5] [µM]	ED50 (μM) T. brucei ([2]; T. brucei cell growth) [µM]	ED50 (μM) T. brucei [2, 6] [µM]
Cc1nn(C)c(C)c1N[S+](=O)([O-])c1ccc2c(c1)OCO2 [DDD71282]	4			>1	
Cc1nn(C)c(C)c1N[S+](=O)([O-])c1ccc(NCc2ccn(C)n2)nc1 [DDD73487]	1.2			14.2	
Cc1nn(C)c(C)c1N[S+](=O)([O-])c1ccc(NCc2ccc3c(c2)OCO3)nc1 [DDD73326]	1.4			>1	
COc1cc(C)c([S+](=O)([O-])Nc2cccnc2)c(C)c1C [DDD71288]	> 100			>1	
Cc1nn(C)c(C)c1N[S+](=O)([O-])c1ccc(NCc2cccc(CN3CCCCC3)c2)nc1 [DDD85651]		1.8		9.8	
Cc1nn(C)c(C)c1N[S+](=O)([O-])c1ccc2c(c1)OCCN2C [DDD71281]	16.1			>1	
CCCn1cc(N[S+](=O)([O-])c2c(C)cc(OC)c(C)c2C)nn1 [DDD73269]	> 100			>1	
Cc1nn(C)c(C)c1N[S+](=O)([O-])c1ccc(CNc2ccncn2)cc1 [DDD73504]	4.2			>1	
COc1cc(C)c([S+](=O)([O-])Nc2onc(C)c2C)c(C)c1C [DDD71284]	> 100			>1	
CC(=O)Nc1ccc([S+](=O)([O-])Nc2c(C)nn(C)c2C)cc1 [DDD71287]	2.8			>1	
Cc1nn(C)c(C)c1N[S+](=O)([O-])c1c(Cl)cc(C#CC2CCCCC2)cc1Cl [DDD73479]	> 100			>1	
Cc1nn(C)c(C)c1N[S+](=O)([O-])c1ccc(NC2Cc3ccccc3C2)nc1 [DDD73478]	0.36			4.5	
Cc1nn(C)c(C)c1N[S+](=O)([O-])c1ccc(NCc2ccc(-n3ccnc3C)cc2)nc1 [DDD73494]	0.71			8.8	
COc1ccc([S+](=O)([O-])Nc2c(C)nn(C)c2C)cc1OC [DDD71290]	41			>1	
Cc1nn(C)c(C)c1N[S+](=O)([O-])c1cc([S+](=O)([O-])c2ccccc2)cs1 [DDD73237]	10.4			>1	
Cc1nn(C)c(C)c1N[S+](=O)([O-])c1ccc(COCc2ccc3ccccc3c2)cc1 [DDD73511]	> 100			>1	
COc1cc(C)c([S+](=O)([O-])Nc2c(C)nn(C)c2N2CCOCC2)c(C)c1C [DDD73271]	> 100			>1	
Cc1nn(C)c(C)c1N[S+](=O)([O-])c1sc2ccc(F)cc2c1C [DDD73221]	6.6			>1	
COc1cc(C)c([S+](=O)([O-])N2CCCc3ncccc32)c(C)c1C [DDD71600]	51			>1	
CCCN(c1c(C)nn(C)c1C)[S+](=O)([O-])c1c(Cl)cc(Br)cc1Cl [DDD85594]	3.2			21.0	
COc1cc(C)c([S+](=O)([O-])Nc2ccc(C)nc2C)c(C)c1C [DDD85634]		27.9		>1	
Cc1nn(C)c(C)c1N[S+](=O)([O-])c1ccc(Cn2cnc(-c3ccccc3)c2)cc1 [DDD73503]	2.5			10.5	
Cc1nn(C)c(C)c1N[S+](=O)([O-])c1cccc2c(N(C)C)cccc12 [DDD73240]	1.6			>1	
COc1cc(C)c([S+](=O)([O-])Nc2c(C)n[nH]c2C)c(C)c1C [DDD71601]	> 100			>1	
Cc1nn(C)c(C)c1NS(=O)(=O)c1c(Cl)cc(-c2cccc3c2CCNC3)cc1Cl [DDD87762]		2.6		>1	
CCCn1ncc(N[S+](=O)([O-])c2c(C)cc(OC)c(C)c2C)n1 [DDD73266]	> 100			>1	

Further lines, with some results ahead:

IC50 [1, 3] [µM]	IC50 [1, 4] [µM]	IC50 [1, 5] [µM]	SMILES	ED50 (μM) T. brucei ([2]; T. brucei cell growth) [µM]	ED50 (μM) T. brucei [2, 6] [µM]
8			Cc1nn(C)c(C)c1N[S+](=O)([O-])c1cccc(Br)c1 [DDD71240]	>1	
	1		Cc1nn(C)c(C)c1N[S+](=O)([O-])c1ccc(NCCN2CCN(C(C)C)CC2)nc1 [DDD86298]	>1	
9.7			Cc1nn(C)c(C)c1N[S+](=O)([O-])c1ccc(CNc2ccc(C(C)C)cc2)cc1 [DDD73505]	>1	
6			Cc1nn(C)c(C)c1N[S+](=O)([O-])c1ccc(N2Cc3ccccc3CC2CO)nc1 (stereo not shown) [DDD73331]	>1	
4			Cc1nn(C)c(C)c1N[S+](=O)([O-])c1ccc2c(c1)OCCO2 [DDD16771]	>1	
1.6			COc1cccc(CNc2ccc([S+](=O)([O-])Nc3c(C)nn(C)c3C)cn2)c1 [DDD73329]	>1	
	6		Cc1nn(C)c(C)c1N[S+](=O)([O-])c1ccc(-c2cccc(C=O)c2)cc1 [DDD86210]	>1	
2.4			COc1ccccc1CNc1ccc([S+](=O)([O-])Nc2c(C)nn(C)c2C)cn1 [DDD73328]	19.1	
62.5			Cc1nn(C)c(C)c1N[S+](=O)([O-])c1c(C)c(C)c(C)c(C)c1C [DDD71248]	>1	
	10		Cc1nn(C)c(C)c1N[S+](=O)([O-])c1ccc(Br)cc1F [DDD88318]	>10	
	3.3		Cc1nn(C)c(C)c1N[S+](=O)([O-])c1ccc(CNCCN(C)C)cc1 [DDD85640]	>50	
4.3			COc1cc(OC)cc(-c2cc(Cl)c([S+](=O)([O-])Nc3c(C)nn(C)c3C)c(Cl)c2)c1 [DDD73321]	>1	
	0.008		Cc1cc([S+](=O)([O-])Nc2c(CC(C)C)nn(C)c2C)ccc1-c1cccc(CN(C)C)c1 [DDD99819]	0.043	
8			Cc1nn(C)c(C)c1N[S+](=O)([O-])c1ccc(N2CCc3ccccc32)nc1 [DDD85597]	>1	
		0.006	Cc1c(N[S+](=O)([O-])c2ccc(-c3cccc(CN(C)C)c3)c(Cl)c2)c(CC(C)C)nn1C [DDD99823]		0.041
	12.7		Cc1cc(Br)ccc1[S+](=O)([O-])Nc1c(C)nn(C)c1C [DDD88316]	>10	
> 100			Cc1nn(C)c(C)c1N[S+](=O)([O-])c1ccc(CN2CCCCC2)cc1 [DDD73226]	>1	
		0.005	CCNCc1cccc(-c2ccc([S+](=O)([O-])Nc3c(CC(C)C)nn(C)c3C)cc2)c1 [DDD100095]		0.055

IC50 [1, 3] [µM]	IC50 [1, 4] [µM]	IC50 [1, 5] [µM]	SMILES	ED50 (μM) T. brucei ([2]; T. brucei cell growth) [µM]	ED50 (μM) T. brucei [2, 6] [µM]
7.2			Cc1ncccc1N[S+](=O)([O-])c1ccc(NCc2ccc3[nH]ccc3c2)nc1 [DDD85611]	>1	
69			CC(=O)Nc1cc(C)c([S+](=O)([O-])Nc2c(C)nn(C)c2C)s1 [DDD73219]	>1	
		0.007	Cc1c(N[S+](=O)([O-])c2ccc(-c3cc(CN(C)C)ccc3F)cc2)c(CC(C)C)nn1C [DDD99827]		0.019
0.5			Cc1cc(C(C)(C)C)cc(C)c1[S+](=O)([O-])Nc1c(C)nn(C)c1C [DDD71243]	5.8	
10.5			Cc1nn(C)c(C)c1N[S+](=O)([O-])c1ccc(-c2ccccc2)cc1 [DDD71297]	>1	
69.5			Cc1nn(C)c(C)c1N[S+](=O)([O-])c1ccc(CSc2ccc(C(C)(C)C)cc2)cc1 [DDD85609]	>1	
	0.008		CCN(CC)Cc1cccc(-c2cc(Cl)c([S+](=O)([O-])Nc3c(CC(C)C)nn(C)c3C)c(Cl)c2)c1 [DDD99747]	0.067	
	0.024		Cc1nn(C)c(C)c1N[S+](=O)([O-])c1ccc(-c2cccc(CCN(C)C)c2)cc1 [DDD90106]	0.251	
4.2			Cc1nn(C)c(C)c1N[S+](=O)([O-])c1ccc([S+](C)(=O)[O-])cc1 [DDD73241]	>1	
0.86			Cc1nn(C)c(C)c1N[S+](=O)([O-])c1ccc(NC(C)c2ccccc2)nc1 (stereo not shown) [DDD73322]	5.4	
2.8			Cc1nn(C)c(C)c1N[S+](=O)([O-])c1ccc(NCCCc2ccccc2)nc1 [DDD73327]	>1	
		0.003	Cc1c(N[S+](=O)([O-])c2ccc(-c3cccc(CC4CCNCC4)c3)cc2)c(CC(C)C)nn1C [DDD100094]		0.008
0.67			Cc1nn(C)c(C)c1N[S+](=O)([O-])c1c(Cl)cc(C#Cc2cncn2C)cc1Cl [DDD73484]	3.1	
	0.007		CCN(CC)Cc1cccc(-c2ccc([S+](=O)([O-])Nc3c(CC(C)C)nn(C)c3C)c(Cl)c2)c1 [DDD99763]	0.053	
	1		Cc1nn(C)c(C)c1NS(=O)(=O)c1c(Cl)cc(-c2ccnc(NCCCn3ccnc3)c2)cc1Cl [DDD86308, 2,6-Dichloro-4-[2-(3-imidazol-1-yl-propylamino)-pyridin-4-yl]-N-(1,3,5-trimethyl-1H-pyrazol-4-yl)-benzenesulfonamide]	>1	
18.2			Cc1nn(C)c(C)c1N[S+](=O)([O-])c1ccc(N2Cc3ccccc3C2)nc1 [DDD85598]	>1	
12.8			Cc1nn(C)c(C)c1N[S+](=O)([O-])c1ccc(NCc2ccc(Cl)c(Cl)c2)nc1 [DDD73325]	>1	
4.3			CCC(C)c1ccc([S+](=O)([O-])Nc2c(C)nn(C)c2C)cc1 (stereo not shown) [DDD71242]	>1	
